Test results reported in patent US12138299B2, “Aldehyde dehydrogenase producing bacteria and methods of using same” (Children's Hospital Medical Center, priority 2021, dated 2024).

What was measured:
[1] = test system: SFB; test: SFB DNA in feces by qPCR; assay type: in vivo, mice
[2] = test system: C. rodentium; test: C. rodentium infection, CFUs in stool; assay type: in vivo, mice; conditions: day 6 p.i.
Description: (§1) METHOD DETAILS C. rodentium infections Mice were orally infected with 109 colony-forming units (CFUs) of C. rodentium suspended in sterile PBS. Post-infection CFUs were measured in stool homogenized in 500 μl PBS in a Tissue Lyser II at 30 Hz for 3 min. Homogenates were serially diluted 10-fold on MacConkey agar (BD) and CFUs were counted after 16 hr incubation at 37° C., normalized to fecal weight. For RA studies, mice were orally gavaged with 300 μg RA or vehicle (DMSO) in 100 μl corn oil q.d. 5 days prior to and during the infection. For RAR inhibitor (RARi) studies, 400 μg BMS493 (Torcis Bioscience) suspended in 10% DMSO/corn oil was administered to mice via oral gavage q.o.d. over 6 days pre-infection and 6 days post-infection. For Aldh1a2 inhibition, mice were orally gavaged with 400 mg/kg of WIN 18446 (Cayman Chemical) or vehicle (DMSO) in 100 μl corn oil for 8 days q.o.d.

[3] = test system: C. rodentium; test: C. rodentium in vitro culture, bacterial density (OD600); assay type: cell-based, Citrobacter rodentium; conditions: 1 nM-10 μM RA
[4] = test system: mammalian ALDH; test: Aldehyde dehydrogenase activity in mouse tissues; assay type: in vivo; conditions: liver of mice treated with WIN18446, 400 mg/kg oral gavage q.o.d. 8 days
Description: as §1, with “For Aldh1a2 inhibition, mice were orally gavaged with 400 mg/kg of WIN 18446 (Cayman Chemical) or vehicle (DMSO) in 100 μl corn oil for 8 days q.o.d.” left out
Aldehyde dehydrogenase activity Samples were homogenized in ice-cold ALDH assay buffer (Sigma, MAK082) for 3 min at 30 Hz and spun down at 13,000×g for 10 min. ALDH activity was measured according to manufacturer's instructions (Sigma, MAK082). Briefly, 50 μl of supernatants with equal protein concentrations determined using Pierce BCA Protein Assay Kit (Thermo Scientific) were combined with ALDH substrate and acetaldehyde in 96-well plates. […] Enzymatic activity was calculated as a function of amount NADH generated over time.

[5] = test system: Saa1/2; test: Saa1/2 mRNA expression in intestinal organoids; assay type: cell-based, Murine; conditions: 1 μM WIN 18446
Description: Intestinal Organoids Murine organoids were generated from ileal IECs isolated from male WT C57BL/6J mice as previously described (Woo et al., 2019; Wu et al., 2020). Dissected terminal ileums (12 cm) were opened longitudinally, scraped to remove intestinal contents and outer cells, washed repeatedly in ice-cold PBS, and cut into 1 cm pieces. Ileum pieces were incubated in Chelation Buffer (2 mM EDTA in PBS) for 30 min at 4° C. with rotation. Tissues were subsequently transferred into new tubes containing Shaking Buffer (PBS, 43.3 mM sucrose, 54.9 mM sorbitol) and gently shaken by hand for 2-4 mins. Ileal crypts were resuspended and plated in Matrigel (Corning) overlaid with 500 μl organoid culture media (60% Advanced DMEM/F12 media supplemented with 10 mM HEPES, 2 mM […], 40% L-WRN conditioned media, 1×N2 supplement, 1×B27 supplement, 50 ng/mL murine EGF, and 10 μM Y-27632 ROCK inhibitor). Culture media was refreshed every 3-4 days. Organoid cultures were treated with 1 μM Aldh1a2 inhibitor WIN 18446 (Cayman Chemical) for 12 hours and then stimulated with 100 μl of SFB contents at 150 mg/ml PBS for 24 hours. For bacterial culture treatments in organoids, 100 μl of liquid cultures were directly added to organoids containing 1 μM retinol for 24 hours. After incubation, organoids were washed 3 times in PBS and lysed using the RNeasy kit (Qiagen).

[6] = test system: downstream gene expression; test: Relative mRNA expression in liver of WIN18446-treated mice; assay type: in vivo; conditions: mice treated with WIN18446
Description: as §1

[7] = test system: bcALDH1A1; test: Expression of ALDH by B. cereus cultured -/+ ROL; conditions: B. cereus cultured with retinol

CC1(C)CC=C(C#Cc2ccccc2)c2cc(/C=C/c3ccc(C(=O)O)cc3)ccc21 [BMS493]
SFB colonization (SFB DNA in feces) ([1]; RARi (BMS493) treatment, 400 μg oral gavage q.o.d.): did not alter SFB colonization
C. rodentium pathogen levels (CFUs in stool) ([2]; GF mice treated with RARi): largely unaffected
Protective effect of SFB against C. rodentium (CFUs in stool) ([2]; SFB-colonized mice treated with RARi): abrogated the protective effect of SFB against C. rodentium

CC1=C(/C=C/C(C)=C/C=C/C(C)=C/C(=O)O)C(C)(C)CCC1 [RA, all-trans retinoic acid]
C. rodentium growth and viability [3]: not directly impaired
Protection against C. rodentium (CFUs in stool) ([2]; GF mice, 300 μg RA oral gavage q.d. prior to and during infection): sufficient to protect GF mice against C. rodentium
C. rodentium pathogen levels (CFUs in stool) ([2]; Nos2−/− mice, exogenous RA): did not alter pathogen levels
C. rodentium infection (CFUs in stool) ([2]; WT mice, exogenous RA): decreased C. rodentium infection
C. rodentium infection (CFUs in stool) ([2]; control dnRAR^FF mice, RA-treatment): decreased infection
RA-induced protection against C. rodentium ([2]; dnRAR^IEC mice, RA-treatment): greatly reduced

O=C(NCCCCCCCCNC(=O)C(Cl)Cl)C(Cl)Cl [WIN18446]
SFB levels in the intestine (SFB DNA in feces) ([1]; following WIN18446 administration): similar
Mammalian ALDH enzymatic activity [4]: decreased mammalian ALDH enzymatic activity
Basal Saa1/2 expression in intestinal organoids [5]: decreased basal Saa1/2 expression
Downstream gene expression (relative mRNA in liver) [6]: decreased

CC1=C(/C=C/C(C)=C/C=C/C(C)=C/CO)C(C)(C)CCC1 [retinol, all-trans retinol]
bcALDH1A1 expression by B. cereus [7]: increased bcALDH1A1 expression
